Results: patent US6875736B2, “Methods for identifying RNA binding compounds” (priority 1999, dated 2005)
Non-standard residues stand in square brackets, D forms with d. Residues, ends and D or L forms follow the SMILES beside them.

Key:
[1] = system: TAR RNA; test: NMR (TOCSY/NOESY) of TAR RNA with ligand; assay type: binding, HIV-1; settings: 1 to 2 mM RNA and ligand, 5 mM phosphate buffer pH 5.5
Procedure: NMR Spectroscopy. NMR experiments were performed to determine the interaction sites of tripeptide ID#1 on TAR RNA. NMR spectra of free TAR RNA and TAR RNA complexed with tripeptide ID#1 were recorded. Due to the spectral overlap, it was impossible to follow all but a few well-isolated resonances by conventional 1-dimensional experiments. Therefore, two-dimensional NOESY and TOCSY experiments were performed. All spectra were recorded on a Bruker AMX-500 NMR spectrometer operating at 500 MHz for ^1H equipped with triple resonance probe and H-broadband inverse detection probes. The 1D and 2D ^1H spectra were recorded at approximately 1 to 2 mM RNA and tripeptide ID#1 concentrations in 5 mM phosphate buffer (pH 5.5), with up to 100 mM NaCl. All other conditions were the same as described earlier by Aboul-ela et al. ((1995) J. Mol. Biol. 253, 313-332.). Complete TAR RNA assignments were obtained. Increasing amounts of tripeptide 1 were added to TAR RNA and the spectral changes were monitored by two-dimensional TOCSY experiments. The TOCSY spectrum contains a region where only pyrimidine H5-H6 resonances are found; this region has a well-dispersed 2D spectrum. Resonances in the free RNA and RNA-ligand complexes were assigned by NOESY experiments. […]

[2] = system: dye-labeled TAR RNA; test: Equilibrium interaction of dye-labeled TAR RNA with bead-tethered tripeptide; assay type: binding, HIV-1; settings: dye-labeled TAR RNA 1 μM, TK buffer, 4° C., 5 hours
Procedure: Second, the equilibrium interaction between dye-labeled TAR RNA and a tripeptide tethered to beads was examined by incubating a suspension of beads containing tripeptide ID#1 in TK buffer (400 μL) with dye-labeled TAR RNA (1 μM) at 4° C. for 5 hours. Beads were stained red upon TAR RNA binding. The interaction between dye-labeled TAR RNA and tripeptide ID #1 is reversible and can be abolished by the addition of unlabeled TAR RNA or tripeptide ID#1 as a competitor. Finally, screening the library with dye-labeled TAR RNA was carried out in the presence of excess unlabeled bulge mutant TAR RNA, inhibiting non-specific TAR RNA-peptide interactions.

[3] = system: Tat trans-activation (HIV-1 LTR promoter, CAT reporter gene); test: Inhibition of Tat trans-activation in HL3T1 cells (CAT reporter); assay type: cell-based
Procedure: (§1) Inhibition of Tat trans-activation in cellular assays. […] Cells were grown in 2 mL of Dulbecco's modified Eagle medium (DMEM) supplemented with 10% fetal calf serum in 60 mm dishes at 37° C. in 5% CO2 in a tissue culture incubator. Cells were refreshed by 2 mL DMEM before transfection. Transfection was started by dropwise addition of 250 μL 2×Hepes-buffered saline and maintenance at room temperature for 10 minutes. Approximately 10 μg of plasmids (pSV2Tat and pAL) and increasing amounts of tripeptide 1 were transfected in the presence of CaCl2 (final concentration 125 mM) and the cells were incubated for 4 hours at 37° C. in a tissue culture incubator. The medium was then discarded and the cells were subjected to glycerol shock (1.5 mL of 15%) for 45 seconds. Finally, the cells were washed twice with 5 mL phosphate-buffered saline (PBS) and were grown in 3 mL DMEM. DMEM was changed at 24 hours post-transfection, and cells were harvested 48 hours post-transfection. Cells were lysed in reporter lysis buffer (Promega). Aliquots were used for CAT and luciferase assays. Both activities were normalized to protein concentration determined by using a modified Bradford assay (Bio-Rad).
(§2) Inhibition of Tat trans-activation in vivo. […] Luciferase reporter gene provides an internal control.

[4] = system: luciferase gene; test: Luciferase internal control in HL3T1 cells (pAL plasmid); assay type: cell-based; settings: increasing amounts of ligand
Procedure: as §1, §2

[5] = system: wild-type TAR RNA; test: Solid-phase RNA-peptide binding assay (dissociation constant); parameters: species or system HIV-1; settings: for KREL: KD of a basic Tat peptide / KD of inhibitor; for Kd: wild-type TAR RNA, TK buffer, overnight at 4° C., four independent experiments; for dissociation constant relative to tripeptide ID#1 (times higher): diastereomers of tripeptide ID#1
Text: Solid-phase RNA-peptide binding assays. TAR RNA binding compounds found and decoded as described above (shown in Table 1) were synthesized on TENTAGEL S-NH2 (4.6 μmole). All fluorenylmethoxycarbonyl (Fmoc)-protected amino acids were purchased from Bachem (Torrance, Calif.). 1-hydroxybenzotriazole (HOBT) and diisopropylcarbodiimide (DIPCDI) were obtained from Aldrich Chemical Co., Milwaukee, Wis. Piperidine and trifluoroacetic acid were purchased from Applied Biosystems Division, Perkin-Elmer. All ligands were synthesized manually according to standard solid-phase peptide synthesis protocols. Coupling efficiencies of residues at each step were monitored using a standard Kaiser test. Deprotection of tripeptides was carried out in 10% water in trifluoroacetic acid (1 mL) for 16 hours at room temperature. After filtration of solvents, the resin was washed with water (1 mL×4), DMF (1 mL×4), and dichloromethane (1 mL×4), and dried under reduced pressure. Ten beads with attached tripeptides were placed in an Eppendorff tube and washed with TK buffer (200 μL×3). The beads were suspended in TK buffer (300 μL) and incubated with TAR RNA (1.95 μM) overnight at 4° C. The suspension was spun in a centrifuge, and the supernatant containing unbound RNA was transferred to a cuvette for optical density measurements at 260 nm using a Shimadzu UV-1601 spectrometer. Equilibrium concentrations of RNA were determined from these measurements. Given that the initial concentrations of ligand and RNA are known, and assuming simple bimolecular receptor/substrate binding, a dissociation constant (KD) was calculated from known equations in order to determine which test compounds bind TAR RNA most tightly.
To verify that this assay reflected RNA-tripeptide interactions and to determine the affinity of these tripeptides for TAR RNA, the eight tripeptides were resynthesized and their dissociation constants with wild-type TAR RNA were measured. […] To compare the RNA binding affinities of 8 ligands to natural Tat peptide, a Tat-derived peptide (Gly48 to Arg57) containing the RNA-binding region of Tat protein was synthesized (FIG. 2(b)) (SEQ. ID. NO. 2). The dissociation constant of the Tat peptide-RNA complex was determined under the same conditions used for the tripeptide-RNA complexes. […] A relative dissociation constant (KREL) can be calculated as the ratios of the Tat peptide to tripeptide dissociation constants (KD) for TAR RNA. Tripeptide ID #1 binds TAR RNA with affinities higher than the wild-type Tat peptide.

[6] = system: TAR RNA; test: On-bead screening of encoded tripeptide library with disperse red-labeled TAR RNA; assay type: binding, HIV-1; settings: for Color: bead colour with 250 nM disperse red-labeled TAR RNA, 4° C., red after 2 days, pink-red after 3 further days; for Frequency: number of stained beads decoded with this sequence, three copies of library, bead peptides N-acetylated
Procedure: Screening the library with TAR RNA. Three copies of the tripeptide library on encoded beads, which contain more than 95% of the members of the library, were placed in an eppendoff tube and washed with water (500 μL×5) and TK buffer (50 mM Tris-HCl (pH 7.4), 20 mM KCl, 0.1% Triton X-100) (500 μL×4), which is commonly used for the formation of Tat-TAR complexes in vitro (Churcher et al. (1993) J. Mol. Biol. 230, 90-110). After filtration, the beads were suspended in TK buffer (400 μL) and bovine serum albumin (0.1 mg/mL) at room temperature for 1 hour to reduce nonspecific binding. The aqueous phase was removed, and the beads were washed with TK buffer (500 μL×3). After filtration, the beads were resuspended in […] TK buffer, 2.5 μM of bulge mutant TAR RNA was added, and the suspension was stirred at 4° C. for 1 day. The buffer was removed, the beads were resuspended in […] TK buffer, and 250 nM disperse red-dye-labeled-TAR RNA and 2.5 μM bulge mutant TAR RNA were added. After 2 days of stirring at 4° C., the buffer was removed, and the remaining beads were washed with water (500 μL×3). Two red beads were picked under a microscope and placed in separate capillary tubes. The remaining beads were further incubated with a mixture of disperse-red-dye-labeled TAR RNA and bulge mutant TAR RNA for 3 days, as described above. During the second screening, eight beads turned red. These beads were picked and placed in capillary tubes.
Decoding the structures of RNA-binding ligands. A disperse-red dye labeled encoded bead was placed in a 25 μL micro capillary tube containing dimethylformamide (DMF) (2 μL) and the bead was washed with DMF(5 μL×4). After draining the solvent, the bead was resuspended in 2 μL DMF and the micro capillary tube was centrifuged for 4 min and then flame sealed. Each capillary tube containing a bead was then irradiated with UV radiation at 350 nm for 4 hours and spun for 5 minutes in a centrifuge. The capillary tube was opened and the cleaved tag alcohols were silylated with N, O-bis(trimethylsilyl)acetamide in a micro syringe. The N, O-bis(trimethylsilyl)acetamide derivatives (1 μL) were analyzed using electron capture gas chromatography (“ECGC”). A Hewlett Packard 6890 series Gas Chromatography system, equipped with a micro electron capture detector (μ-ECD) and a HP Chemstation operating system, was used for all decoding analyses. The GC was operated in splitless inlet mode, using helium as the carrier gas. A 35 m×0.2 mm i.d.×0.33 μm film thickness HP-Ultra 1 column was used with a temperature program of 1 min isothermal at 200° C. followed by heating at 10° C./min to 320° C. The μ-ECD make up gas was nitrogen.
On-bead selection of structure-specific TAR RNA binding compounds. To identify tripeptides that bind to TAR RNA, the dye disperse red was covalently attached to TAR RNA, and the labeled RNA was incubated in a suspension of library beads made using the split synthesis method. […] Nevertheless, the dye-TAR RNA conjugate was able to enter the beads and bind in a structure-dependent manner to tripeptides attached thereto. The red color of the dye was clearly evenly distributed throughout the translucent bead. Broken beads were not selected. Peptides specific for portions of TAR RNA other than the bulge region were blocked using a relatively large concentration of an unlabeled bulge mutant TAR RNA. A small amount of detergent and low RNA concentrations (250 nM) also minimized non-specific binding.
Ligand Sequence Analysis. Upon incubating the dye-TAR RNA conjugate with the library, only two beads were stained red. These two beads were separated from the rest of the library, which was allowed to incubate with the dye-TAR RNA conjugate for 3 days at 4° C. […] At the end of the second incubation, only eight additional beads were stained pink-red.

[7] = system: HL3T1 cells
Text: Inhibition of Tat trans-activation in vivo. To test whether the tripeptide 1-TAR RNA interaction could be used to control HIV-1 gene expression in vivo, HL3T 1 cells, a HeLa cell line derivative containing an integrated HIV-1 LTR promoter and CAT reporter gene (Felber & Pavlakis (1988) Science 239, 184-187), were used. […] Plasmids pSV2Tat and pAL express the first exon of Tat protein and luciferase enzyme, respectively. Luciferase reporter gene provides an internal control.

| Molecule | shift of TAR RNA resonances in TOCSY spectra [1] | bead staining upon dye-labeled TAR RNA binding [2] | Tat trans-activation inhibited ([3]; 700 nM, CAT activity) | Transcription of the luciferase gene [4] | KREL [5] | Kd [5] [nM] | Kd ([5]; listed as tripeptide ID#1) [nM] | Color [6] | Frequency [6] | Cell viability / toxicity to the cells [7] | inhibitory effect on Tat transactivation ([3]; control ligands) | dissociation constant relative to tripeptide ID#1 (times higher) [5] |
| --- | --- | --- | --- | --- | --- | --- | --- | --- | --- | --- | --- | --- |
| NCCCC[C@H](N)C(=O)N[C@H](CCCCN)C(=O)N[C@@H](CC(N)=O)C(=O)O [ID #1, H2N-(L)Lys-(D)Lys-(L)Asn-OH] (H-Lys-[dK]-Asn-OH) | Resonances in the bulge region, U23 and C24, were shifted | stained red | more than 90% | not affected | 1.73 | 420 ± 44 | 441 | Red | 2 | not toxic | – | – |
| N=C(N)NCCC[C@H](N)C(N)=O [L-argininamide, reference compound] | – | – | – | – | – | – | – | – | – | – | no inhibitory effect | – |
| GRKKRRQRRR [Tat peptide, reference compound] | – | – | – | – | – | 698 | – | – | – | – | – | – |
| H2N-(D)Thr-(D)Lys-(L)Asn-OH [ID #7] | – | – | – | – | 1.29 | 564 ± 80 | – | Pink | 1 | – | – | – |
| H2N-(D)Thr-(D)Lys-(L)Phe-OH [ID #8] | – | – | – | – | 0.35 | 2090 | – | Pink | 1 | – | – | – |
| H2N-(L)Arg-(D)Lys-(L)Arg-OH [ID #6] | – | – | – | – | 0.83 | 878 ± 80 | – | Pink | 1 | – | – | – |
| H2N-(L)Arg-(D)Lys-(L)Asn-OH [ID #4] | – | – | – | – | 0.28 | 2640 | – | Pink | 1 | – | – | – |
| H2N-(L)Arg-(D)Lys-(L)Val-OH [ID #5] | – | – | – | – | 0.07 | 10400 | – | Pink | 1 | – | – | – |
| H2N-(L)Lys-(D)Lys-(D)Asn-OH [ID #2] | – | – | – | – | 0.17 | 4170 | – | Pink | 1 | – | – | approximately 7 times |
| H2N-(L)Lys-(L)Lys-(L)Asn-OH [ID #3] | – | – | – | – | 0.23 | 3220 | – | Pink | 2 | – | – | approximately 7 times |
